Read-outs that look alike come from different tables or passages of the source.
Target: MAT2A (Homo sapiens (Human), UniProt P31153)
Test: MAT2A biochemical test (inorganic phosphate colorimetric, PiColorLock)
Conditions: read-out: MAT2A inhibitory Activity IC50
Source text: Test Example 1. Biochemical Test
The brief introduction of the test principle: L-methionine and ATP can be converted into SAM, inorganic phosphate, and inorganic diphosphate under the catalysis of MAT2A enzymes. The content of inorganic phosphate in the sample can be quantitatively determined by adding a developer such as ammonium molybdate or the like to the enzymatic reaction mixture, thereby reflecting the enzymatic activity of MAT2A.
Reference: The experiment referred to the method disclosed in patent WO2018045071.
Material: MAT2A screening kits were purchased from BPS bioscience (U.S.); 384-well plates were purchased from Corning Company (U.S.). • 1. MAT2A protein (Pharmaron Beijing Co., Ltd.); • 2. L-methionine (Sigma #M9625-5G) • 3. ATP (Sigma #A7699-1G) • 4. KCl (Sigma #60142-500ML-F) • 5. Tris (Sigma #T2663-1L) • 6. MgCl2 (Sigma #M1028) • 7. EDTA (Invitrogen #AM9260G) • 8. BSA (Sangon Biotech #A500023-0100) • 9. PiColorLock (abcam #ab270004)
Detection method: In the experimental group, the test compound was dissolved in DMSO, diluted to a final concentration of 10 μM using Echo, and diluted 3-fold. 80 nL of the dilution was transferred to a 384-well plate.
The experimental buffer (50 mM Tris, 50 mM KCl, 15 mM MgCl2, 100 μM EDTA, 0.005% BSA) was prepared. The MAT2A protein was diluted with the experimental buffer (at final concentration of […]). 40 μL of 2×MAT2A solution was added to the 384-well plate. The plate was centrifuged at 1000 rpm for 1 min and incubated at room temperature for 120 min.
L-methionine and ATP (the final concentration of L-methionine was […] and the final concentration of ATP was 400 μM) were diluted with the experimental buffer. 40 μL of 2×L-methionine and ATP solution was added to initiate the reaction. The plate was centrifuged at 1000 rpm for 1 min and incubated at room temperature for 90 min.
The PiColorLock™ reaction catalyst was mixed with the PiColorLock™ buffer at a ratio of 1:100 according to the instructions. 20 μL was added to each well, and the plate was shaken for 30 s. 8 μL stabilizing reagent was added, and the plate was shaken for 30 s. The signal values were measured after 30 min of incubation at room temperature.
A negative control group and a positive control group were respectively used as Bottom and Top. The negative control group was not added with MAT2A protein, and other operations were consistent with those of the experimental group. The positive control group was not added with the test compound, only added with DMSO in the same volume, and other operations were consistent with those of the experimental group.
The % Compound inhibition was calculated and fitted to give the IC50 of the compound.
% Compound inhibition=1-100%×(Signal−Bottom)/(Top−Bottom).
Signal referred to the signal value of the experimental group, Bottom referred to the average signal value of the negative control group, and Top referred to the average signal value of the positive control group.
Under the condition of this experiment, the inhibitory effect of the test compound on MAT2A can be expressed as the IC50 of the inhibition on the phosphate production level during the enzymatic reaction.

MAT2A, sequence (P31153 whole entry): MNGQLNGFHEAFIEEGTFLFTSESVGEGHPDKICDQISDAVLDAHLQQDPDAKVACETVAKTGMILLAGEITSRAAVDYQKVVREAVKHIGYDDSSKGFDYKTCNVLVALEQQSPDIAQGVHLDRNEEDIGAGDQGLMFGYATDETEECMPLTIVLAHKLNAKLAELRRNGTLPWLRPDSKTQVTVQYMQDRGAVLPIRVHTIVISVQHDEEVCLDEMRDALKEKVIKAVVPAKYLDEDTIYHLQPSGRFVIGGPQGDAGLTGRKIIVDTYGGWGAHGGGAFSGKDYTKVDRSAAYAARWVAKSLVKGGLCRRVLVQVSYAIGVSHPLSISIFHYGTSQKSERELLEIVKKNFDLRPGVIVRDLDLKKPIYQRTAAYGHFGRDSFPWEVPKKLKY

SMILES	IC50 (class symbols) [nM]	IC50 (numeric values) [nM]
Cn1cnc2c(=O)n(-c3cccc(F)c3F)c3nc(C(F)(F)F)ccc3c21 [Compound 78, 5-(2,3-difluorophenyl)-1-methyl-7-(trifluoromethyl)-1,5-dihydro-4H-imidazo[4,5-c][1,8]naphthyridin-4-one]	< 100	80.2
CC(C)c1ccccc1-n1c(=O)c2ncn(C)c2c2ccc(C(F)(F)F)nc21 [Compound 34, 5-(2-isopropylphenyl)-1-methyl-7-(trifluoromethyl)-1,5-dihydro-4H-imidazo[4,5-c][1,8]naphthyridin-4-one]	< 100	73.1
Cn1cnc2c(=O)n(-c3cccc(C#N)c3)c3nc(C(F)(F)F)ccc3c21 [Compound 52, 3-(1-methyl-4-oxo-7-(trifluoromethyl)-1,4-dihydro-5H-imidazo[4,5-c][1,8]naphthyridin-5-yl)benzonitrile]	< 100	47.2
Cn1cnc2c(=O)n(-c3ccc(F)cc3Cl)c3nc(C(F)(F)F)ccc3c21 [Compound 32, 5-(2-chloro-4-fluorophenyl)-1-methyl-7-(trifluoromethyl)-1,5-dihydro-4H-imidazo[4,5-c][1,8]naphthyridin-4-one]	100 to 500	119
O=c1c2ncoc2c2ccc(C(F)(F)F)nc2n1-c1ccc(OC(F)F)cc1 [Compound 16, 5-(4-(difluoromethoxy)phenyl)-7-(trifluoromethyl)oxazolo[4,5-c][1,8]naphthyridin-4(5H)-one]	100 to 500	122
O=c1c2ncn(C(F)F)c2c2ccc(Cl)cc2n1-c1cccnc1C1CC1 (single isomer, unassigned) [Compound 87-P2, 7-chloro-5-(2-cyclopropylpyridin-3-yl)-1-difluoromethyl-1,5-dihydro-4H-imidazo[4,5-c]quinolin-4-one]	< 100	38.7
CCc1ncccc1-n1c(=O)c2ncn(C)c2c2ccc(C(F)(F)F)nc21 (single isomer, unassigned) [Compound 67-P2, 5-(2-ethylpyridin-3-yl)-1-methyl-7-(trifluoromethyl)-1,5-dihydro-4H-imidazo[4,5-c][1,8]naphthyridin-4-one]	< 100	41.4
O=c1c2ncoc2c2ccc(C(F)(F)F)nc2n1-c1ccccc1Cl [Compound 8, 5-(2-chlorophenyl)-7-(trifluoromethyl)oxazolo[4,5-c][1,8]naphthyridin-4(5H)-one]	< 100	64.4
Cn1cnc2c(=O)n(-c3ccc(OC(F)F)cn3)c3nc(C(F)(F)F)ccc3c21 [Compound 69, 5-(5-(difluoromethoxy)pyridin-2-yl)-1-methyl-7-(trifluoromethyl)-1,5-dihydro-4H-imidazo[4,5-c][1,8]naphthyridin-4-one]	100 to 500	282
Cc1ccccc1-n1c(=O)c2ncn(C)c2c2ccc(C(F)(F)F)nc21 [Compound 31, 1-methyl-5-(2-methylphenyl)-7-(trifluoromethyl)-1,5-dihydro-4H-imidazo[4,5-c][1,8]naphthyridin-4-one]	100 to 500	159
O=c1c2ncoc2c2ccc(C(F)(F)F)cc2n1-c1cccnc1C1CC1 (single isomer, unassigned) [Compound 85-P2, 5-(2-cyclopropylpyridin-3-yl)-7-(trifluoromethyl)oxazolo[4,5-c]quinolin-4(5H)-one]	< 100	33.6
O=c1c2ncoc2c2ccc(C(F)(F)F)nc2n1-c1cccnc1C(F)(F)F (single isomer, unassigned) [Compound 86-P2, 7-trifluoromethyl-5-(2-trifluoromethylpyridin-3-yl)oxazolo[4,5-c][1,8]naphthyridin-4(5H)-one]	< 100	25
Cc1ncccc1-n1c(=O)c2ncoc2c2ccc(Cl)cc21 [Compound 83, 7-chloro-5-(2-methylpyridin-3-yl)oxazolo[4,5-c]quinolin-4(5H)-one]	< 100	54.7

— patent publication US20240124454A1, “TRICYCLIC COMPOUND AND USE THEREOF” (NANJING ZAIMING PHARMACEUTICAL CO., LTD., priority 2020, published 2024)
